{"source": "patent US10813920B2", "about": "“Drug for treating corneal endothelium by promoting cell proliferation or inhibiting cell damage” (THE DOSHISHA, priority 2013, dated 2020)", "test_system": "human corneal endothelial cells", "assay": "BrdU uptake ELISA in cultured human corneal endothelial cells (Example 2)", "format": "cell-based", "details": "ELISA after 3 days; 1, 3, 10, 30 μM; relative to control", "procedure": "*The amount of IL-6 expression of human corneal endothelial cells was quantified by RT-PCR by the following method. Human corneal endothelial cells (n=3, passage 5) were cultured for 20 days in the presence of 10 μM of SB203580, and then RNA was extracted with RneasyMini (QIAGEN). 277 ng of total RNA was reverse-transcribed with RevertraAce (Toyobo) and cDNA synthesized into a template to perform PCR. 10 μl of PCR solution containing 1 μl of reaction mixture from single strand cDNA synthesis was heated for 1 minute at an initial temperature of 94° C. and then 1 minute at 94° C., 30 seconds at 54° C., and 30 seconds at 72° C. The temperature cycle was repeated 30 times. IL-6 sense primer: […] (SEQ ID NO: 1) IL-6 antisense primer: […] (SEQ ID NO: 2) *ELISA (BrdU): Cells were seeded on a 96-well culture plate at a seeding density of 5000 cells/well. […] The reaction was stopped with 1M sulfuric acid to measure the absorbance at 450 nm with a plate reader. […] The amount of IL-6 protein in a culture supernatant collected after 7 days was quantified in accordance with the manual of DuoSetELISA human IL-6 (R & D Cat # DY206). […] The plate was washed and the bound peroxidase was detected with a substrate solution (R&D Systems Cat # DY999). The coloring reaction was stopped with 2M of H2SO4 to read out the plate with Multimax (Promega) at […]. […]"}
{"smiles": "C[S+]([O-])c1ccc(-c2nc(-c3ccncc3)c(-c3ccc(F)cc3)[nH]2)cc1", "note": "(stereo not shown) [SB203580, 4-(4-fluorophenyl)-2-(4-methylsulfinylphenyl)-5-(4-pyridyl)-1H-imidazole]", "values": [{"measurement": "BrdU uptake", "result": "significantly promoted"}]}
